Experimental data taken from PubChem BioAssay AID1259408 (Genetic Toxicology Data Bank (GENE-TOX), 2018).
Active and inactive are the calls of the source. How the calls were made is not given here.

Tested on: GENE-TOX genotoxicity assays, various organisms and cells
Experiment: GENE-TOX mutagenicity studies
Details: for call: Assay Type: In vivo carcinogenicity studies
Source text: GENE-TOX provides genetic toxicology (mutagenicity) test data from expert peer review of open scientific literature for more than 3,000 chemicals from the United States Environmental Protection Agency (EPA). GENE-TOX was established to select assay systems for evaluation, review data in the scientific literature, and recommend proper testing protocols and evaluation procedures for these systems.
GENE-TOX covers the years 1991 - 1998. It is no longer updated.
This is an archive assay for GENE-TOX mutagenicity studies.

[1] = Species/Cell Type: Escherichia coli polA (W3119 vs P3478), Assay Type: Rec-assay, DNA effects (bacterial DNA repair), Assay Code: RE1T, Evaluation Type: Evaluation A (Pre-1980)
[2] = Species/Cell Type: Salmonella typhimurium (one or more of the five standard strains: TA98, TA100, TA1535, TA1537, and TA1538), Assay Type: Histidine reverse gene mutation, Ames assay, Assay Code: SAL+*, Activation: With metabolic activation, Evaluation Type: Evaluation A (Pre-1980)
[3] = Species/Cell Type: Drosophila melanogaster, Assay Type: Sex-linked recessive lethal gene mutation, Assay Code: SRL+, Evaluation Type: Evaluation A (Pre-1980)
[4] = Species/Cell Type: Escherichia coli polA (W3119 vs P3478), Assay Type: Rec-assay, DNA effects (bacterial DNA repair), Assay Code: RE1+, Evaluation Type: Evaluation A (Pre-1980)

Nc1ccc(-c2ccccc2)cc1
mutagenic call (Species/Cell Type: Escherichia coli polA (W3110 vs P3478), Assay Type: Rec-assay, DNA effects (bacterial DNA repair), Assay Code: RE2+, Evaluation Type: Evaluation A (Pre-1980)): active; positive
mutagenic call [1]: no conclusion
mutagenic call (Species/Cell Type: Fischer rat embryo (RLV/1706) cells, Assay Type: Cell transformation, viral enhanced, Assay Code: CTR+, Evaluation Type: Evaluation A (Pre-1980)): active; positive
mutagenic call (Species/Cell Type: Human diploid fibroblasts, Assay Type: Unscheduled DNA synthesis (UDS) in vitro, DNA effects, Assay Code: UDH-, Evaluation Type: Evaluation A (Pre-1980)): inactive; negative
mutagenic call (Species/Cell Type: Mammalian polychromatic erythrocytes, Assay Type: Micronucleus test, chromosome aberrations, Assay Code: MNTT, Evaluation Type: Evaluation A (Pre-1980)): no conclusion
mutagenic call (Species/Cell Type: Mouse embryo (AKR/ME) cells, Assay Type: Cell transformation, Assay Code: CTK+, Evaluation Type: Evaluation A (Pre-1980)): active; positive
call (Species/Cell Type: Nonhuman, Assay Code: CCG+, Evaluation Type: Evaluation A (Pre-1980)): active; positive
mutagenic call (Species/Cell Type: Nonhuman, Assay Type: Sister-chromatid exchange (SCE) in vivo, Assay Code: SC3+, Evaluation Type: Evaluation B (Post-1980)): active; positive
mutagenic call (Species/Cell Type: Rat primary hepatocytes, Assay Type: Unscheduled DNA synthesis (UDS) in vitro, DNA effects, Assay Code: UDP+, Evaluation Type: Evaluation A (Pre-1980)): active; positive
mutagenic call (Species/Cell Type: Saccharomyces cerevisiae, Assay Type: Mitotic recombination or gene conversion, Assay Code: YEH+, Evaluation Type: Evaluation A (Pre-1980)): active; positive
mutagenic call [2]: active; positive
mutagenic call (Species/Cell Type: Salmonella typhimurium, Assay Type: Forward and reverse gene mutation, body fluid assay, Assay Code: BFU+, Evaluation Type: Evaluation A (Pre-1980)): active; positive
mutagenic call (Species/Cell Type: Salmonella typhimurium, Assay Type: Forward and reverse gene mutation, host-mediated assay, Assay Code: HMA+, Evaluation Type: Evaluation A (Pre-1980)): active; positive
mutagenic call (Species/Cell Type: Syrian hamster embryo (SHE) cells, Assay Type: Cell transformation, clonal assay, Assay Code: CTC+, Evaluation Type: Evaluation A (Pre-1980)): active; positive

N.N.[Cl-].[Cl-].[Cl-].[Cl-].[Pt+4]
mutagenic call (Species/Cell Type: Nonhuman, Assay Type: Sister-chromatid exchange (SCE) in vitro, Assay Code: SC2+, Evaluation Type: Evaluation B (Post-1980)): active; positive

CCCNP(=O)(N1CC1)N1CC1
mutagenic call [3]: active; positive
mutagenic call (Species/Cell Type: Nonhuman, Assay Type: Chromosome aberrations in vitro, Assay Code: CY&+, Evaluation Type: Evaluation A (Pre-1980)): active; positive
mutagenic call (Species/Cell Type: Schizosaccharomyces pombe, Assay Type: Reverse gene mutation, Assay Code: YEZ+, Evaluation Type: Evaluation A (Pre-1980)): active; positive

O=C(Nc1ccc([N+](=O)[O-])cc1Cl)c1cc(Cl)ccc1O
mutagenic call (Species/Cell Type: Human lymphocytes, Assay Type: Sister-chromatid exchange (SCE) in vitro, Assay Code: SCL+D, Dose Response: With dose response, Evaluation Type: Evaluation B (Post-1980)): active; positive
mutagenic call (Species/Cell Type: Human lymphocytes, Assay Type: Sister-chromatid exchange (SCE) in vivo, Assay Code: SCY+, Evaluation Type: Evaluation B (Post-1980)): active; positive
mutagenic call (Species/Cell Type: Human, Assay Type: Sister-chromatid exchange (SCE) in vitro, Assay Code: SC1+D, Dose Response: With dose response, Evaluation Type: Evaluation B (Post-1980)): active; positive

CC(C)N(C(=O)SCC(Cl)=C(Cl)Cl)C(C)C
mutagenic call [2]: active; positive

c1ccc(-c2ccc(C3CO3)cc2)cc1 (centres undefined)
mutagenic call (Species/Cell Type: Salmonella typhimurium (one or more of the five standard strains: TA98, TA100, TA1535, TA1537, and TA1538), Assay Type: Histidine reverse gene mutation, Ames assay, Assay Code: SAL+, Evaluation Type: Evaluation A (Pre-1980)): active; positive

O=CCBr
mutagenic call [4]: active; positive

[Cd]
mutagenic call (Species/Cell Type: Human lymphocytes or leukocytes, Assay Type: Chromosome aberrations in vivo, Assay Code: CY8T, Evaluation Type: Evaluation A (Pre-1980)): no conclusion
call (Species/Cell Type: Nonhuman, Assay Code: CCG+L, Evaluation Type: Evaluation A (Pre-1980)): active; positive

C=CCNC(=O)OC1(Sc2ccccc2)C(=O)c2ccccc2C1=O
mutagenic call (Species/Cell Type: Salmonella typhimurium, Assay Type: Forward and reverse gene mutation, host-mediated assay, Assay Code: HMAT, Evaluation Type: Evaluation A (Pre-1980)): no conclusion

O=NN1CCC(Cl)CC1
mutagenic call [3]: active; positive
mutagenic call [2]: active; positive

CN(CCCCC(=O)OC[C@H](N)C(=O)O)N=O
mutagenic call (Species/Cell Type: Escherichia coli polA (W3110 vs P3478), Assay Type: Rec-assay, DNA effects (bacterial DNA repair), Assay Code: RE2T, Evaluation Type: Evaluation A (Pre-1980)): no conclusion
mutagenic call [1]: no conclusion

CNc1ccc(Cl)cc1C(=O)c1ccccc1
mutagenic call (Species/Cell Type: Salmonella typhimurium (one or more of the five standard strains: TA98, TA100, TA1535, TA1537, and TA1538), Assay Type: Histidine reverse gene mutation, Ames assay, Assay Code: SALT, Evaluation Type: Evaluation A (Pre-1980)): no conclusion

CCC(C)I (centres undefined)
mutagenic call [4]: active; positive

CCOP(=O)(N=C1SCC(C)S1)OCC (centres undefined)
mutagenic call (Species/Cell Type: Hordeum vulgare (barley), Assay Type: Chromosome aberrations, Assay Code: HOC+D, Dose Response: With dose response, Evaluation Type: Evaluation A (Pre-1980)): active; positive
